Data as given in paper PMC8003314, “Design and Synthesis of Ranitidine Analogs as Multi-Target Directed Ligands for the Treatment of Alzheimer’s Disease” (International Journal of Molecular Sciences, 2021).

Legend:
Aβ40 = target: T1, Aβ40 (Homo sapiens, UniProt P05067); test: ThT fluorescence assay of Aβ monomer aggregation; assay type: biochemical; settings: 40 μM Aβ40 monomer, mean ± SEM, n = 3–5, N.E. = not significantly different from control samples; for Lag Time Extension (Fold Increase) / Plateau Reduction (% Inhibition): 100 µM compound; for Lag Time Extension (Fold Increase): T2/T1 relative to control; for inhibition at 100 µM: pH 8, 100 µM compound, read-out: Plateau Reduction (% Inhibition); for inhibition at 100 µM / Plateau Reduction (% Inhibition): 40 mM Tris-HCl pH 8.0, 25 °C
T1 construct: purchased AnaSpec; host or cells: synthetic peptide
Description: Synthetic Aβ40 was used in this study because it is the predominant isoform found in amyloid plaques isolated from AD brain [12]. Thioflavin T (ThT), a fluorescent compound that binds specifically to amyloid β-sheet structures to yield a shifted, enhanced florescence, was used to monitor the appearance of aggregates. […] The inhibitory effect of compounds on Aβ aggregation was evidenced as a reduction in the equilibrium plateau and/or an increase in the lag time. The plateau reduction (Figure 2A), which indicates inhibition that reduces the extent of Aβ aggregation, was defined as the percentage decrease of the plateau ThT fluorescence in the presence of inhibitor, P2, compared to the plateau ThT fluorescence in the absence of inhibitor, P1.
Lyophilized Aβ peptide was reconstituted in 50 mM NaOH at a concentration of 2 mg/mL and purified via size-exclusion chromatography (SEC) on a Superdex 75 HR 10/300 column (Cytiva, Marlborough, MA) using a running buffer of 40 mM Tris-HCl (pH 8.0). Bovine serum albumin (BSA) (2 mg/mL) was employed as a pretreatment to reduce nonspecific Aβ interaction with the dextran matrix of the column. […] The concentrations of eluted Aβ monomer fractions were determined with a calculated extinction coefficient of 1450 M^−1 cm^−1 at 276 nm. Purified Aβ monomer samples were used fresh or stored at 4 ℃ for up to 4 days.
All compounds were dissolved in DMSO at 5 mM and stored at −20 °C. […] DMSO (2% v/v) was added to control reactions run in parallel.
SEC-purified Aβ monomer was diluted to 40 μM in 40 mM Tris-HCl (pH 8.0) and agitated (vortex, 800 rpm, 25 °C) without (control) or with 100 µM ranitidine analogs. Periodically, a 20-μL aliquot was removed and combined with 140 μL of 10 μM ThT. Fluorescence (excitation = 450 nm, emission = 470–500 nm) was evaluated using a Perkin-Elmer LS-45 luminescence spectrometer (Waltham, MA, USA). Fluorescence values were calculated as the integrated area under the emission curve with baseline (ThT alone) subtraction and plotted vs. aggregation time. Each compound was evaluated using at least three independent experiments.
Figure 2 Assessment of the inhibition of Aβ monomer aggregation. Monomer aggregation assays were conducted in the absence (solid line, control) and presence (dotted line, experimental) of the ranitidine analogs, and aggregate formation was monitored as an increase in the ThT fluorescence. (A) Inhibition that decreases the quantity of aggregates formed at equilibrium is reported as the plateau reduction, the percentage decrease of the plateau ThT fluorescence in the presence of inhibitor, P2, compared to the plateau for the control, P1. (B) Inhibition that extends the time to aggregate formation is reported as the lag time extension. It is evidenced as an increase in the experimental lag time, T2, relative to the lag time for the control, T1, and evaluated as a fold increase relative to the control, T2/T1.

electric eel AChE = target: T2, electric eel AChE (Electrophorus electricus, UniProt O42275); test: AChE inhibition assay (modified Ellman method); assay type: biochemical; settings: 0.1 M sodium phosphate pH 8.0, 37 °C, 200 µM acetylthiocholine
T2 construct: purchased Sigma (Sigma-Aldrich, St. Louis, MO, USA)
Protocol: Aβ40 was purchased from AnaSpec (AnaSpec, Fremont, CA, USA) and stored in lyophilized form at −20 °C. Thioflavin T (ThT) and electric eel AChE were obtained from Sigma (Sigma-Aldrich, St. Louis, MO, USA). Bovine serum albumin (BSA) and dimethyl sulfoxide (DMSO) were purchased from EMD Biosciences (EMD Biosciences, San Diego, CA, USA). Tris-HCl (pH 8.0) was prepared using Tris base, purchased from Promega (Promega, Madison, WI, USA) and Tris hydrochloride, purchased from EMD (EMD, Burlington, MA, USA).
The AChE inhibition assay was modified based on the method of Ellman et al. in a 24-well plate format at 37 °C. Assays were performed in 0.1 M sodium phosphate (pH 8.0), containing 200 µM acetylthiocholine, 100 µM dithiobisnitrobenzoic acid, and 0.005 units of AChE in a final volume of 3000 µL. The reaction was initiated by the addition of acetylthiocholine, and the formation of a product was monitored by measuring absorbance at 412 nm. The IC50 values were determined by nonlinear regression analysis of the concentration–response curves generated. Each compound was evaluated using at least three independent experiments.

AChE = tested on: AChE; design: method as in PMID 27769620; settings: previous study; cited from earlier work

T2 sequence (O42275 24-633): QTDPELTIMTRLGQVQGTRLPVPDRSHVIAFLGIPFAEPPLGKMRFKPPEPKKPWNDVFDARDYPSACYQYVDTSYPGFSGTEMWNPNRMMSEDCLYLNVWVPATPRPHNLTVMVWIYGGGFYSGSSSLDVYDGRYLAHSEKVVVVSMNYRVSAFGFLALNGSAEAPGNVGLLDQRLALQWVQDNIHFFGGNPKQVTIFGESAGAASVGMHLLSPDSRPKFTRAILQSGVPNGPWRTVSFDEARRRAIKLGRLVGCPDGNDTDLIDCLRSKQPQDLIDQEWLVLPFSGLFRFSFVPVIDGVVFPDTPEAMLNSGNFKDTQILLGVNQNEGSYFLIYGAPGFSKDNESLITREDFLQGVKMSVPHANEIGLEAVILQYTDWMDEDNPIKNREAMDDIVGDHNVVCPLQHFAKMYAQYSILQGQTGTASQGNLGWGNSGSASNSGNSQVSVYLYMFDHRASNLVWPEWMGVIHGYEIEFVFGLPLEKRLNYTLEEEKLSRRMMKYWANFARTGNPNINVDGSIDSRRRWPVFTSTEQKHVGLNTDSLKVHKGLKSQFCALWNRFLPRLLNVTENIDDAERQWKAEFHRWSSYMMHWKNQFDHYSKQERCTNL
T1 sequence (P05067 672-711 limits assumed): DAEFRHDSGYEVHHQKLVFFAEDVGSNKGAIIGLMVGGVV

| Compound | Lag Time Extension (Fold Increase) (Aβ40) | inhibition at 100 µM (Aβ40) | Plateau Reduction (% Inhibition) (Aβ40) | IC50 (electric eel AChE) | IC50 (AChE) |
| --- | --- | --- | --- | --- | --- |
| CN(C)Cc1ccc(C[S+]([O-])CCN2C(=O)c3cccc4cc([N+](=O)[O-])cc(c34)C2=O)o1 (centres unmarked) [Compound 13, 2-(2-(((5-((Dimethylamino)methyl)furan-2-yl)methyl)sulfinyl)ethyl)-5-nitro-1H-benzo[de]isoquinoline-1,3(2H)-dione] | N.E. | 26.8% |  |  |  |
| CN(C)Cc1ccc(CSCCN2C(=O)c3ccccc3C2=O)o1 [Compound 2] | lost and N.E. |  | N.E. |  |  |
| CN(C)Cc1ccc(CSCCN2C(=O)c3cccc4c(Cl)ccc(c34)C2=O)o1 [Compound 8, 6-Chloro-2-(2-(((5-((dimethylamino)methyl)furan-2-yl)methyl)thio)ethyl)-1H-benzo [de]isoquinoline-1,3(2H)-dione] | N.E. | 65.8% |  | 1.23 µM |  |
| CN(C)Cc1nc(CSCCN2C(=O)c3cccc4cccc(c34)C2=O)cs1 [Compound 9, 2-(2-((2-((Dimethylamino)methyl)thiazol-4-yl)methylthio)ethyl)-1H-benzo[de]iso quinoline-1,3(2H)-dione] | N.E. | 61.4% | 54.2% ± 5.1% | 2.02 µM |  |
| O=C1c2cccc3cc([N+](=O)[O-])cc(c23)C(=O)N1CCc1ccco1 [Compound 11, 2-(2-(furan-2-yl)ethyl)-5-nitro-1H-benzo[de]isoquinoline-1,3(2H)-dione] | 1.76 ± 0.61 fold | 60.3% |  |  |  |
| CN(C)Cc1ccc(C[S+]([O-])CCN2C(=O)c3cccc4cccc(c34)C2=O)o1 (centres unmarked) [Compound 14, 2-(2-(((5-((Dimethylamino)methyl)furan-2-yl)methyl)sulfinyl)ethyl)-1H-benzo[de] isoquinoline-1,3(2H)-dione] | N.E. | 20.1% |  |  |  |
| 2-(2-(Methylthio)ethyl)-5-nitro-1H-benzo[de]isoquinoline-1,3(2H)-dione [Compound 7] | N.E. |  | abrogated and N.E. |  |  |
| CN(C)Cc1nc(CSCCN2C(=O)c3cccc4cc([N+](=O)[O-])cc(c34)C2=O)cs1 [Compound 10, 2-(2-(((2-((Dimethylamino)methyl)thiazol-4-yl)methyl)thio)ethyl)-5-nitro-1H-benzo[de]isoquinoline-1,3(2H)-dione] | N.E. | 54.2% | 61.4% ± 19.7% | 0.52 µM |  |
| CN(C)Cc1ccc(CSCCN2C(=O)c3ccc([N+](=O)[O-])cc3C2=O)o1 [Compound 5] | 2.0 ± 0.6 fold | 39.1% |  |  |  |
| CN(C)Cc1ccc(CSCCN2C(=O)c3cccc4cccc(c34)C2=O)o1 [Compound 3] | lost and N.E. | 60.9% |  |  |  |
| CC1CC(=O)N(CCSCc2ccc(CN(C)C)o2)C1=O (centres unmarked) [Compound 1] | 2.8 ± 0.6 fold |  | N.E. |  |  |
| C[N+](C)([O-])Cc1ccc(CS(=O)(=O)CCN2C(=O)c3cccc4cc([N+](=O)[O-])cc(c34)C2=O)o1 [Compound 15, N,N-Dimethyl-1-(5-(((2-(5-nitro-1,3-dioxo-1H-benzo[de]isoquinolin-2(3H)-yl)ethyl)sulfonyl)methyl)furan-2-yl)methanamine oxide] | N.E. | 20.4% |  |  |  |
| CN(C)Cc1ccc(CSCCN2C(=O)c3cccc4cc([N+](=O)[O-])cc(c34)C2=O)o1 [Compound 6] | N.E. | 71.8% |  |  | 150 nM |
| CN(C)Cc1ccc(CCN2C(=O)c3cccc4cc([N+](=O)[O-])cc(c34)C2=O)o1 [Compound 12, 2-(2-(5-((Dimethylamino)methyl)furan-2-yl)ethyl)-5-nitro-1H-benzo[de]isoquino line-1,3(2H)-dione] | 2.25 ± 0.25 fold | 65.6% |  | 0.36 µM |  |
